Holding throughout (format): functional
Assay [1] deals with Escherichia coli. The assay can be described thus: Antibacterial activity of compound against Escherichia coli at 10 ug/mL expressed as zone of inhibition.
The test system of assay [2] is Escherichia coli. Put plainly: Antibacterial activity of compound against Escherichia coli at 20 ug/mL expressed as zone of inhibition.
Assay [3] deals with Escherichia coli. The assay can be described thus: Antibacterial activity of compound against Escherichia coli at 40 ug/mL expressed as zone of inhibition.
Assay [4] deals with Escherichia coli. Put plainly: Antibacterial activity of compound against Escherichia coli at 80 ug/mL expressed as zone of inhibition.
Assay [5] relates to Bacillus subtilis. The assay can be described thus: Antibacterial activity of compound against Bacillus subtilis at 10 ug/mL expressed as zone of inhibition.
In assay [6] the test system is Bacillus subtilis. Put plainly: Antibacterial activity of compound against Bacillus subtilis at 20 ug/mL expressed as zone of inhibition.
Assay [7] relates to Bacillus subtilis. Put plainly: Antibacterial activity of compound against Bacillus subtilis at 40 ug/mL expressed as zone of inhibition.
The test system of assay [8] is Bacillus subtilis. Put plainly: Antibacterial activity of compound against Bacillus subtilis at 80 ug/mL expressed as zone of inhibition.
The subject of assay [9] is Klebsiella pneumoniae. The assay can be described thus: Antibacterial activity of compound against Klebsiella pneumoniae at 10 ug/mL expressed as zone of inhibition.
Assay [10] has as its system Klebsiella pneumoniae. The assay can be described thus: Antibacterial activity of compound against Klebsiella pneumoniae at 20 ug/mL expressed as zone of inhibition.
Assay [11] relates to Klebsiella pneumoniae. Put plainly: Antibacterial activity of compound against Klebsiella pneumoniae at 40 ug/mL expressed as zone of inhibition.
For assay [12], the system named is Klebsiella pneumoniae. Put plainly: Antibacterial activity of compound against Klebsiella pneumoniae at 80 ug/mL expressed as zone of inhibition.

Drawing on ChEMBL document CHEMBL1141886, “QSAR study on the antibacterial activity of some sulfa drugs: building blockers of Mannich bases” (2005), this text covers Zone of inhibition for six compounds.

Structures are written as SMILES.

Turning to `Nc1ccc(S(=O)(=O)Nc2ncccn2)cc1` [SULFADIAZINE], the Zone of inhibition with Escherichia coli [1] amounted to 9.7 mm; in the assay with Escherichia coli [2], 17.2 mm; in the assay on Escherichia coli [3], 21.2 mm; in the assay with Escherichia coli [4] it was 24.5 mm; in the assay on Bacillus subtilis [5], 20.86 mm; in the assay with Bacillus subtilis [6], 27.23 mm. The Zone of inhibition in the assay with Bacillus subtilis [7] was 26.36 mm; with Bacillus subtilis [8], 25.93 mm; in the assay on Klebsiella pneumoniae [9], 27.03 mm; in the assay on Klebsiella pneumoniae [10] it was 29.23 mm; in the assay with Klebsiella pneumoniae [11] it was 29.53 mm; in the assay on Klebsiella pneumoniae [12], 25.63 mm.

For the compound `N=C(N)NS(=O)(=O)c1ccc(N)cc1` [SULFAGUANIDINE], the Zone of inhibition in the assay with Bacillus subtilis [5] was 11.23 mm; in the assay with Bacillus subtilis [6], 10.9 mm; with Bacillus subtilis [7], 17.9 mm; in the assay on Bacillus subtilis [8], 21.76 mm.

For `Cc1cc(C)nc(NS(=O)(=O)c2ccc(N)cc2)n1` [SULFAMETHAZINE], the Zone of inhibition was found to be 15.1 mm in the assay on Escherichia coli [1]; 16.9 mm in the assay with Escherichia coli [2]; 18.8 mm with Escherichia coli [3]; 18.56 mm with Escherichia coli [4]; 15.4 mm with Bacillus subtilis [5]; 19.96 mm in the assay on Bacillus subtilis [6]. The values for the Zone of inhibition with Bacillus subtilis [7] and with Bacillus subtilis [8] were 21.76 mm and 22.08 mm, respectively.

Consider `Cc1nnc(NS(=O)(=O)c2ccc(N)cc2)s1` [SULFAMETHIZOLE], for which the Zone of inhibition in the assay on Escherichia coli [1] is 16.2 mm; in the assay on Escherichia coli [2] it was 17.43 mm; in the assay on Escherichia coli [3], 22.2 mm; with Escherichia coli [4] it was 25.5 mm; in the assay with Bacillus subtilis [5] it was 18.06 mm; in the assay with Bacillus subtilis [6], 19.13 mm. The Zone of inhibition in the assay on Bacillus subtilis [7] was determined as 19.46 mm; in the assay with Bacillus subtilis [8], 20.5 mm; in the assay with Klebsiella pneumoniae [9], 30.3 mm; in the assay on Klebsiella pneumoniae [10], 29.86 mm; in the assay with Klebsiella pneumoniae [11], 29.6 mm; in the assay on Klebsiella pneumoniae [12], 27.76 mm.

In the case of `Cc1cc(NS(=O)(=O)c2ccc(N)cc2)no1` [SULFAMETHOXAZOLE], the Zone of inhibition with Escherichia coli [1] is on record as 19.63 mm; in the assay on Escherichia coli [2], 22.93 mm; with Escherichia coli [3] it was 23.23 mm; in the assay on Escherichia coli [4] it was 24.03 mm; in the assay on Bacillus subtilis [5] it was 22.8 mm; in the assay on Bacillus subtilis [6], 25.46 mm. Moreover, the Zone of inhibition in the assay with Bacillus subtilis [7] turned out to be 27.43 mm; in the assay on Bacillus subtilis [8], 27.9 mm; with Klebsiella pneumoniae [9] it was 11.63 mm; with Klebsiella pneumoniae [10], 14.92 mm; in the assay on Klebsiella pneumoniae [11] it was 22.43 mm; in the assay with Klebsiella pneumoniae [12], 26.46 mm.

On to `Nc1ccc(S(N)(=O)=O)cc1` [SULFANILAMIDE], for which the Zone of inhibition in the assay on Escherichia coli [1] was 20.43 mm; in the assay with Escherichia coli [2], 22.3 mm; in the assay on Escherichia coli [3] it was 22.86 mm; with Escherichia coli [4], 25.55 mm.
